Measurements taken from the supplement of paper PMC10307832.

Key:
Test in all cases: relative viability (nuclei count vs DMSO), 5 days (fraction); higher = more cells survive
[1] = compound: C=CC(=O)N1CCC[C@@H](n2nc(-c3ccc(Oc4ccccc4)cc3)c3c(N)ncnc32)C1 [Ibrutinib] + COc1cc2c(Oc3ccc(NC(=O)C4(C(=O)Nc5ccc(F)cc5)CC4)cc3F)ccnc2cc1OCCCN1CCOCC1 [Foretinib] (partner 0.25 µM)
How it was run: (§1)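 A single step with final 0.05% Triton X-100, 1% formaldehyde and 1 ug/ml Hoechst fixed the cells and stained nuclei 5 days after treatment. Lung cancer cell lines in 1536-well plates had been treated by pin tool the day after seeding with one drug alone or a fixed anchor-drug dose plus five library-drug doses (not always all listed) in √10 steps, and nuclei were counted on 4× images. Relative viability is the ratio of nuclei in treated wells to nuclei in vehicle wells, taken as the median of duplicate plates.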

[2] = compound: C=CC(=O)Nc1cc(-n2c(=O)ccc3cnc4ccc(-c5ccc(NS(C)(=O)=O)cc5)cc4c32)ccc1C [BMX-IN-1] + Cc1cc(Nc2cc(N3CCN(C)CC3)nc(Sc3ccc(NC(=O)C4CC4)cc3)n2)n[nH]1 [Tozasertib] (partner 0.1 µM)
How it was run: as §1

[3] = compound: C=CC(=O)Nc1cc(-n2c(=O)ccc3cnc4ccc(-c5ccc(NS(C)(=O)=O)cc5)cc4c32)ccc1C [BMX-IN-1] + NC(=O)Nc1cc(-c2cccc(F)c2)sc1C(=O)N[C@H]1CCCNC1 [AZD7762] (partner 0.2 µM)
How it was run: as §1

[4] = compound: C=CCc1cccc(/C=N/NC(=O)CN2CCN(Cc3ccccc3)CC2)c1O [PAC-1] + O=C(CCCCCCC(=O)Nc1ccccc1)NO [Vorinostat] (partner 1 µM)
How it was run: as §1

Cell Line | relative viability ([1]; first compound 0.005 µM) | relative viability ([1]; first compound 0.01581 µM) | relative viability ([1]; first compound 0.05 µM) | relative viability ([1]; first compound 0.1581 µM) | relative viability ([1]; first compound 0.5 µM) | relative viability ([2]; first compound 0.02 µM) | relative viability ([2]; first compound 0.2 µM) | relative viability ([2]; first compound 0.6325 µM) | relative viability ([2]; first compound 2 µM) | relative viability ([3]; first compound 0.02 µM) | relative viability ([3]; first compound 0.2 µM) | relative viability ([3]; first compound 0.6325 µM) | relative viability ([3]; first compound 2 µM) | relative viability ([4]; first compound 0.02 µM) | relative viability ([4]; first compound 0.06325 µM) | relative viability ([4]; first compound 0.2 µM) | relative viability ([4]; first compound 2 µM)
201T | 1.02 | 1 | 0.965 | 1.03 | 1.08 | 1.17 | 0.997 | 0.953 | 0.896 | 0.728 | 0.63 | 0.662 | 0.56 | 0.957 | 0.949 | 1.09 | 1.05
A549 | 0.878 | 0.852 | 1.03 | 0.984 | 0.877 |  |  |  |  |  |  |  |  |  |  |  | 
A-427 | 1.01 | 0.944 | 1.04 |  | 1.02 | 0.183 | 0.182 | 0.21 | 0.2 | 0.796 | 1.14 | 0.84 | 0.806 | 0.891 | 0.889 | 0.86 | 0.8
ABC-1 | 1.27 | 0.961 | 1.28 | 1.09 | 0.897 | 0.199 | 0.162 | 0.145 | 0.172 | 0.761 | 0.848 | 0.82 | 0.868 | 1.06 | 1 | 1.44 | 1.09
BEN |  | 0.724 | 0.418 | 0.444 | 0.672 | 0.58 | 0.498 | 0.52 | 0.507 | 0.747 | 0.706 | 0.69 | 0.707 | 0.558 | 0.58 | 0.552 | 0.601
CAL-12T | 1.11 | 0.958 | 0.981 | 1.14 | 1.19 | 0.345 | 0.375 | 0.344 | 0.297 | 0.665 | 0.76 | 0.647 | 0.613 | 0.89 | 0.793 | 0.688 | 0.712
COR-L23 | 1.08 | 0.886 | 1.04 | 0.926 | 1 | 0.186 | 0.312 | 0.213 | 0.212 |  |  |  |  | 0.415 | 0.429 |  | 0.364
COR-L 105 | 1 | 0.933 | 0.969 | 1.04 | 0.602 | 0.388 | 0.318 | 0.76 | 0.358 |  |  |  |  | 1.08 | 0.817 | 0.817 | 0.801
Calu-6 | 0.961 | 0.853 | 0.918 | 0.844 | 0.826 |  |  |  |  |  |  |  |  |  |  |  | 
ChaGo-K-1 | 0.842 | 0.902 | 0.937 | 0.954 | 0.853 | 0.216 | 0.227 | 0.218 | 0.237 | 1.02 | 1.02 | 0.885 | 0.907 | 0.754 | 0.773 | 0.65 | 0.829
EBC-1 | 0.0898 | 0.102 | 0.102 | 0.0945 | 0.098 |  |  |  |  |  |  |  |  |  |  |  | 
EKVX | 0.835 | 0.762 | 0.802 | 0.617 | 0.232 | 0.519 | 0.468 | 0.445 | 0.383 | 1.02 | 0.81 | 0.843 | 0.723 | 0.768 | 0.776 | 0.793 | 0.69
EMC-BAC-2 | 0.88 | 0.894 |  | 0.969 | 0.797 | 0.286 | 0.287 | 0.289 | 0.274 | 1.32 | 1.31 | 1.1 | 1.14 | 0.414 | 0.531 | 0.774 | 0.478
EPLC-272H | 0.675 | 0.474 | 0.409 | 0.584 | 0.434 | 0.218 | 0.222 | 0.279 | 0.245 | 0.231 | 0.217 | 0.476 | 0.202 | 0.457 | 0.3 | 0.309 | 0.225
H3255 | 0.66 | 0.986 | 0.711 | 0.993 | 0.53 | 0.788 | 0.648 | 0.577 | 0.624 | 0.93 | 0.866 | 1.05 | 0.874 | 0.923 | 0.762 | 0.87 | 0.593
HARA | 0.917 | 0.717 | 0.705 | 0.933 | 0.403 | 0.0824 | 0.0995 | 0.111 | 0.092 | 0.47 | 0.454 | 0.26 | 0.322 |  | 0.56 | 0.529 | 0.526
HCC-15 | 0.978 | 0.929 | 1.08 | 1.08 | 1.01 | 0.449 | 0.53 | 0.531 | 0.398 | 0.591 | 1.24 | 1.35 | 1.29 | 0.782 | 0.861 | 0.769 | 0.825
HCC-44 |  |  |  |  |  | 1.27 | 0.92 | 0.861 | 0.725 | 0.989 | 0.941 | 1.01 | 1.11 | 1.11 | 1.05 | 1.03 | 1.09
HCC-78 | 0.651 | 0.489 | 0.527 | 0.547 | 0.348 | 0.472 | 0.474 | 0.52 | 0.36 | 0.662 | 0.64 | 0.587 | 0.726 | 0.379 | 0.416 | 0.435 | 0.431
HCC-366 | 1.04 | 0.909 | 0.958 | 0.866 | 0.881 | 0.0929 | 0.0929 | 0.112 | 0.1 | 0.38 | 0.417 | 0.416 | 0.343 | 0.396 | 0.339 | 0.258 | 0.449
HCC-827 | 1.04 | 0.993 | 0.813 | 1.03 | 0.165 | 0.524 | 0.434 | 0.415 | 0.442 | 0.217 | 0.207 | 0.251 | 0.194 | 0.903 | 0.857 | 0.752 | 0.841
HOP-62 | 1.19 | 1.11 | 1.17 | 1.21 | 1.3 | 0.431 | 0.413 | 0.388 | 0.373 | 0.606 | 0.627 | 0.724 | 0.65 | 0.596 | 0.518 | 0.473 | 0.655
